Several values for one entry are separate records, joined by “and”; a condition that tells them apart may be missing. Equal entries are not always repeated.
Columns and labels:
Type in all cases: cell-based
[1] = test system: normal human epidermal keratinocytes (NHEKs); experiment: Neosynthesis of sulfated GAGs by NHEKs, [35S]-sulfate incorporation; details: for % Control / Mean (cpm) / [35S]-Sulfate (cpm): sulfated GAGs, NHEKs; for [35S]-Sulfate (cpm): single replicates
Procedure: (§1) The effects of the compounds on the neosynthesis of total and sulfated glycosaminoglycans (GAGs) were studied on two cell models, normal human epidermal keratinocytes (NHEKs) and normal human dermal fibroblasts (NHDFs). The effects of these compounds were evaluated by measuring: • the incorporation of [3H]-glucosamine into the total GAGs neosynthesized by NHEKs and by NHDFs, • the incorporation of [35S]-sulfate into the sulfated GAGs neosynthesized by NHEKs and by NHDFs.
(§2) The keratinocytes were seeded into wells and cultured in culture medium for 24 hours. The medium was then replaced with culture medium containing or not containing (control) the compounds to be tested or the reference (4-nitrophenyl β-D-xylopyranoside at 300 μM), then the cells were incubated for 72 hours with the addition of the [3H]-glucosamine radioactive label (total GAGs) or of the [35S]-sulfate radioactive label (sulfated GAGs) for the final 24 hours of incubation.
(§3) At the end of the incubation, the glycosaminoglycans were extracted from the cells with a chaotropic buffer. The GAGs were then purified by ion exchange chromatography: adsorption of the anionic molecules on Q-Sepharose beads and desorption of the molecules of low or medium anionic nature, with a suitable solution.
(§4) The radioactivity incorporated into the molecules left on the support (GAGs, predominantly) was measured by liquid scintillation.
(§5) All the experimental conditions were performed in n=3.
(§6) The inter-group comparisons were performed using Student's non-paired two-sided t-test. The statistical analyses can be interpreted if n≥5; however, for n<5, the data calculated are provided only by way of indication.

[2] = test system: normal human epidermal keratinocytes (NHEKs); experiment: Neosynthesis of total GAGs by NHEKs, [3H]-glucosamine incorporation; details: for % Control / Mean (cpm) / [3H]-glucosamine (cpm): total GAGs, NHEKs; for [3H]-glucosamine (cpm): single replicates
Procedure: as §1, §2, §3, §4, §5, §6

[3] = test system: normal human dermal fibroblasts (NHDFs); experiment: Neosynthesis of total GAGs by NHDFs, [3H]-glucosamine incorporation; details: for % Control / Mean (cpm) / [3H]-glucosamine (cpm): total GAGs, NHDFs; for [3H]-glucosamine (cpm): single replicates
Procedure: as §1
(§7) The fibroblasts were seeded into wells and cultured in culture medium for 24 hours. The medium was then replaced with culture medium containing or not containing (controt) the compounds to be tested or the reference (TGF-β at 10 ng/ml), then the cells were incubated for 72 hours with the addition of the [35S]-sulfate radioactive label (sulfated GAGs) or of the [3H]-glucosamine radioactive label (total GAGs) for the final 24 hours of incubation.
as §3, §4, §5, §6

[4] = test system: normal human dermal fibroblasts (NHDFs); experiment: Neosynthesis of sulfated GAGs by NHDFs, [35S]-sulfate incorporation; details: sulfated GAGs, NHDFs; for [35S]-Sulfate (cpm): single replicates
Procedure: as §1, §7, §3, §4, §5, §6

## O=[N+]([O-])c1ccc(O[C@@H]2OC[C@@H](O)[C@H](O)[C@H]2O)cc1 [4-Nitrophenyl β-D-xylopyranoside, 4-nitrophenyl β-D-xylopyranoside]
[1]; campaign 1, 300 μM
  % Control: 922%
  Mean (cpm): 62566 cpm
  [35S]-Sulfate (cpm): 60267 cpm and 63396 cpm and 64036 cpm
[1]; campaign 2, 300 μM
  % Control: 1029%
  Mean (cpm): 54615 cpm
[1]; campaign 2, 300 μM, listed as 4-Nitrophenyl B-D-xylopyranoside
  [35S]-Sulfate (cpm): 54440 cpm and 52841 cpm and 56564 cpm
[2]; campaign 1, 300 μM
  % Control: 206%
  Mean (cpm): 26611 cpm
  [3H]-glucosamine (cpm): 26835 cpm and 26438 cpm and 26560 cpm
[2]; campaign 2, 300 μM
  % Control: 243%
  Mean (cpm): 20694 cpm
  [3H]-glucosamine (cpm): 22239 cpm and 20953 cpm and 18891 cpm

## Oc1ccc(/C=C/c2cc(O)cc(O[C@@H]3OC[C@@H](O)[C@H](O)[C@H]3O)c2)cc1 [Compound 1a, 3-hydroxy-5-[(E)-2-(4-hydroxyphenyl)ethenyl]phenyl β-D-xylopyranoside]
[3]; campaign 2, 10 μM
  % Control: 108%
  Mean (cpm): 1684 cpm
  [3H]-glucosamine (cpm): 1622 cpm and 1750 cpm and 1680 cpm
[3]; campaign 2, 100 μM
  % Control: 90%
  Mean (cpm): 1408 cpm
  [3H]-glucosamine (cpm): 1422 cpm and 1331 cpm and 1470 cpm
[4]; campaign 1, 10 μM
  % Control: 211%
  Mean (cpm): 3472 cpm
  [35S]-Sulfate (cpm): 3286 cpm and 3573 cpm and 3557 cpm
[4]; campaign 1, 100 μM
  % Control: 537%
  Mean (cpm): 8844 cpm
  [35S]-Sulfate (cpm): 8753 cpm and 8534 cpm and 9244 cpm
[4]; campaign 2, 10 μM
  % Control: 221%
  Mean (cpm): 1254 cpm
  [35S]-Sulfate (cpm): 1274 cpm and 1307 cpm and 1180 cpm
[4]; campaign 2, 100 μM
  % Control: 411%
  Mean (cpm): 2328 cpm
  [35S]-Sulfate (cpm): 2237 cpm and 2369 cpm and 2379 cpm
[1]; campaign 1, 10 μM
  % Control: 137%
  Mean (cpm): 9319 cpm
  [35S]-Sulfate (cpm): 9304 cpm and 9522 cpm and 9131 cpm
[1]; campaign 1, 100 μM
  % Control: 839%
  Mean (cpm): 56923 cpm
  [35S]-Sulfate (cpm): 53801 cpm and 56728 cpm and 60239 cpm
[1]; campaign 2, 10 μM
  % Control: 217%
  Mean (cpm): 11501 cpm
  [35S]-Sulfate (cpm): 10206 cpm and 12532 cpm and 11765 cpm
[1]; campaign 2, 100 μM
  % Control: 973%
  Mean (cpm): 51673 cpm
  [35S]-Sulfate (cpm): 46568 cpm and 54125 cpm and 54327 cpm
[2]; campaign 1, 10 μM
  % Control: 117%
  Mean (cpm): 15165 cpm
  [3H]-glucosamine (cpm): 14440 cpm and 15184 cpm and 15871 cpm
[2]; campaign 1, 100 μM
  % Control: 235%
  Mean (cpm): 30380 cpm
  [3H]-glucosamine (cpm): 30079 cpm and 29149 cpm and 31911 cpm
[2]; campaign 2, 10 μM
  % Control: 134%
  Mean (cpm): 11405 cpm
  [3H]-glucosamine (cpm): 10145 cpm and 11857 cpm and 12213 cpm
[2]; campaign 2, 100 μM
  % Control: 199%
  Mean (cpm): 16980 cpm
  [3H]-glucosamine (cpm): 16745 cpm and 16574 cpm and 17621 cpm

## Oc1cc(O)cc(/C=C/c2ccc(O[C@@H]3OC[C@@H](O)[C@H](O)[C@H]3O)cc2)c1 [Compound 2a, 4-[(E)-2-(3,5-dihydroxy-phenyl)ethenyl]phenyl β-D-xylopyranoside]
[3]; tested at 10 and 100 μM
  effect on the neosynthesis of the total GAGs by the NHDFs (in words): stimulated in a concentration-dependent manner
[3]; campaign 2, 10 μM
  % Control: 104%
  Mean (cpm): 1624 cpm
  [3H]-glucosamine (cpm): 1758 cpm and 1479 cpm and 1636 cpm
[3]; campaign 2, 100 μM
  % Control: 126%
  Mean (cpm): 1973 cpm
  [3H]-glucosamine (cpm): 1958 cpm and 1959 cpm and 2003 cpm
[4]; campaign 2, 10 μM
  % Control: 141%
  Mean (cpm): 795 cpm
  [35S]-Sulfate (cpm): 765 cpm and 835 cpm and 786 cpm
[4]; campaign 2, 100 μM
  % Control: 533%
  Mean (cpm): 3015 cpm
  [35S]-Sulfate (cpm): 2858 cpm and 3230 cpm and 2958 cpm
[1]; campaign 2, 1 μM
  % Control: 114%
  Mean (cpm): 6073 cpm
  [35S]-Sulfate (cpm): 5974 cpm and 6365 cpm and 5879 cpm
[1]; campaign 2, 10 μM
  % Control: 240%
  Mean (cpm): 12748 cpm
  [35S]-Sulfate (cpm): 11209 cpm and 13332 cpm and 13703 cpm
[1]; tested at 1 and 10 μM
  effect on the neosynthesis of the sulfated GAGs by the NHEKs (in words): stimulated in a concentration-dependent manner
[2]; tested at 1 and 10 μM
  effect on the neosynthesis of the total GAGs by the NHEKs (in words): stimulated in a concentration-dependent manner
[2]; campaign 2, 1 μM
  % Control: 120%
  Mean (cpm): 10215 cpm
  [3H]-glucosamine (cpm): 9472 cpm and 10133 cpm and 11041 cpm
[2]; campaign 2, 10 μM
  % Control: 151%
  Mean (cpm): 12844 cpm
  [3H]-glucosamine (cpm): 11913 cpm and 12452 cpm and 14167 cpm

## TGF-β: reference for the fibroblast assays, at 10 ng/ml
[3]; campaign 2, 10 ng/ml
  % Control: 331%
  Mean (cpm): 5167 cpm
  [3H]-glucosamine (cpm): 5999 cpm and 4173 cpm and 5328 cpm
[4]; campaign 1, 10 ng/ml
  % Control: 208%
  Mean (cpm): 3433 cpm
  [35S]-Sulfate (cpm): 3397 cpm and 3492 cpm and 3411 cpm
[4]; campaign 2, 10 ng/ml
  % Control: 257%
  Mean (cpm): 1452 cpm
  [35S]-Sulfate (cpm): 1471 cpm and 1482 cpm and 1403 cpm

Reference: patent US11654096B2 (L'OREAL, priority 2017, dated 2023)
